# Measured values published in ChEMBL document CHEMBL1128701 (J Med Chem, 1995).
# Target: T1, Progesterone receptor (Homo sapiens, UniProt P06401)
# T1 sequence (P06401 whole entry): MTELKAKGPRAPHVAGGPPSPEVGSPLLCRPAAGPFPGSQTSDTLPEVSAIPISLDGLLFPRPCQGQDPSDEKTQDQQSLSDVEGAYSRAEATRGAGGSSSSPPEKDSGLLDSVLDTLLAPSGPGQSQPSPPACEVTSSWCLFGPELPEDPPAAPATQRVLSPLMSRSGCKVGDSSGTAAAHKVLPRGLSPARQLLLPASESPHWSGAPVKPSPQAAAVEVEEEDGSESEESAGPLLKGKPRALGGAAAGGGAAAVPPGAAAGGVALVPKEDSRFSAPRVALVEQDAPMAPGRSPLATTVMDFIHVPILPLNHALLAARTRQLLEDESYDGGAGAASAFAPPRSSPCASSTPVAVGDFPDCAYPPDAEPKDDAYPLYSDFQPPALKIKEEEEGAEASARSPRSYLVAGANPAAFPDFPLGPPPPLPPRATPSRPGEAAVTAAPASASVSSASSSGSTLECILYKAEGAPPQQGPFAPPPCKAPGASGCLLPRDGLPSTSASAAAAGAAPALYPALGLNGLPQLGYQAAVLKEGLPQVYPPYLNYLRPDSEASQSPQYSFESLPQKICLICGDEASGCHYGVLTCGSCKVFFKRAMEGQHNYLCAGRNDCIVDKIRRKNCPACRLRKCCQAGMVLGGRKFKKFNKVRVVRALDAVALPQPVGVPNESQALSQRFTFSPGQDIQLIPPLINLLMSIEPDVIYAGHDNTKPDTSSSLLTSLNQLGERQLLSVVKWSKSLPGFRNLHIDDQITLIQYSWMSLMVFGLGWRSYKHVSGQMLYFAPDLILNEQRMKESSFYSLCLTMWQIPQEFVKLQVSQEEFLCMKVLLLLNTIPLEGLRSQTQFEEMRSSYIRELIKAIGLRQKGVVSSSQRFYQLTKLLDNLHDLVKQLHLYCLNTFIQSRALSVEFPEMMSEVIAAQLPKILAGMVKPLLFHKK
# Experiment: Binding affinity against Progesterone receptor in human TE85 osteosarcoma cells was determined using (Z)-[125I]-17-alpha-(2-iodovinyl)-19-nor-testosterone as radioligand
row,Structure (SMILES),IC50 [µM]
1,O=C(c1ccc(Cl)c(Cl)c1)N1CC=CC(c2ccccc2)=N1,> 1
2,Clc1ccc(CN2CCCC(c3ccccc3)=N2)cc1Cl,> 1
3,CCCCc1ccc(C2=NN(C(=O)c3ccc(Cl)c(Cl)c3)CCC2)cc1,> 1
4,CC(C)(C)c1ccc(C(=O)N2CCCC(c3ccccc3)=N2)cc1,> 1
5,COc1ccc(C2=NN(C(=O)c3ccc(Cl)c(Cl)c3)CCC2)cc1,> 1
6,O=C(c1ccc(Cl)cc1)N1CCCC(c2ccccc2)=N1,0.521
7,O=S(=O)(c1ccc(Cl)c(Cl)c1)N1CCCC(c2ccccc2)=N1,> 1
8,COc1ccc(C(=O)N2CCCC(c3ccccc3)=N2)cc1,> 1
9,O=C(c1ccccc1)N1CCCC(c2ccccc2)=N1,> 1
10,CCc1ccc(C2=NN(C(=O)c3ccc(Cl)c(Cl)c3)CCC2)cc1,0.57
11,O=C(c1ccc(Br)cc1)N1CCCC(c2ccccc2)=N1,> 1

# More lines, in order of falling IC50, values ahead:
row,IC50 [µM],Structure (SMILES)
1,0.515,O=C(c1ccc(F)c(F)c1)N1CCCC(c2ccccc2)=N1
2,0.416,Cc1ccc(C(=O)N2CCCC(c3ccccc3)=N2)cc1
3,0.27,O=C(c1ccc(Cl)c(C(F)(F)F)c1)N1CCCC(c2ccccc2)=N1
4,0.17,O=C1CCC(c2ccccc2)=NN1Cc1ccc(Cl)c(Cl)c1
5,0.098,CC1CC(c2ccccc2)=NN(C(=O)c2ccc(Cl)c(Cl)c2)C1 (centres undefined)
6,0.084,O=C(c1ccc(Cl)c(Cl)c1)N1CCCC(c2ccc(Cl)cc2)=N1
7,0.0753,CC1(C)CC(c2ccccc2)=NN(C(=O)c2ccc(Cl)c(Cl)c2)C1
8,0.0706,O=C(c1cccc(Cl)c1)N1CCCC(c2ccccc2)=N1
9,0.0624,O=C(c1ccc(Cl)c(Cl)c1)N1CCCC(c2ccccc2)=N1
10,0.0482,O=C(c1ccc(Cl)c(Cl)c1)N1CCCC(c2ccc(F)cc2)=N1
11,0.0382,O=C(c1ccc(F)c(Br)c1)N1CCCC(c2ccccc2)=N1
12,0.024,CC1CCN(C(=O)c2ccc(Cl)c(Cl)c2)N=C1c1ccccc1 (centres undefined)
13,0.0175,S=C(c1ccc(Cl)c(Cl)c1)N1CCCC(c2ccccc2)=N1
